From ChEMBL document CHEMBL5331122, “Structure-Activity Relationship Study of Antimicrobial Peptide PE2 Delivered Novel Linear Derivatives with Potential of Eradicating Biofilms and Low Incidence of Drug Resistance” (J Med Chem, 2023)
Values after ≈ are worked out from the molar mass of the structure shown.

Assays:
Bacillus subtilis = experiment: Antibacterial activity against Bacillus subtilis ATCC 23857 assessed as bacterial growth inhibition incubated for 18 hrs by broth microdilution method; assay type: functional
Escherichia coli = experiment: Antibacterial activity against Escherichia coli ATCC 25922 assessed as bacterial growth inhibition incubated for 18 hrs by broth microdilution method; assay type: functional
Erythrocyte = experiment: Hemolytic activity in mouse red blood cell assessed as hemolysis incubated for 1 hr; assay type: toxicity, cell-based; settings: dose 4-256 µg/ml
Enterococcus faecalis = experiment: Antibacterial activity against Enterococcus faecalis ATCC 29212 assessed as bacterial growth inhibition incubated for 18 hrs by broth microdilution method; assay type: functional
Klebsiella pneumoniae = experiment: Antibacterial activity against Klebsiella pneumoniae ATCC 700603 assessed as bacterial growth inhibition incubated for 18 hrs by broth microdilution method; assay type: functional
Staphylococcus aureus = experiment: Antibacterial activity against Staphylococcus aureus ATCC 25923 assessed as bacterial growth inhibition incubated for 18 hrs by broth microdilution method; assay type: functional
Pseudomonas aeruginosa = experiment: Antibacterial activity against Pseudomonas aeruginosa ATCC 27853 assessed as bacterial growth inhibition incubated for 18 hrs by broth microdilution method; assay type: functional
[1] = Hemolytic activity in mouse red blood cells assessed as hemolysis at 256 microg/ml incubated for 1 hr relative to control; assay type: toxicity, cell-based, Erythrocyte; settings: red blood cells (erythrocytes), at 256 µg/mL, read-out: Activity

For `CCCCCCCC(=O)N[C@@H](CCN)C(=O)N[C@H](C(=O)N[C@@H](CCN)C(=O)N[C@H](Cc1ccccc1)C(=O)N[C@@H](CC(C)C)C(=O)N[C@@H](CCN)C(=O)N[C@@H](C(=O)N[C@@H](CC(C)C)C(=O)N[C@H](C(N)=O)[C@@H](C)O)C(C)C)[C@@H](C)CC`, the MIC (Bacillus subtilis) was 4 µg/mL (≈ 3.54 µM), the MIC (Escherichia coli) was 4 µg/mL (≈ 3.54 µM) and the HC10 (Erythrocyte) was 128 µg/mL. For the same molecule, the MIC (Enterococcus faecalis) was 16 µg/mL (≈ 14.2 µM), the MIC (Klebsiella pneumoniae) was 8 µg/mL (≈ 7.08 µM) and the MIC (Staphylococcus aureus) was 8 µg/mL (≈ 7.08 µM). The MIC (Pseudomonas aeruginosa) was 8 µg/mL (≈ 7.08 µM).

Work on `CCCCCC(=O)N[C@@H](CCN)C(=O)N[C@H](C(=O)N[C@H]1CCNC(=O)[C@H]([C@@H](C)O)NC(=O)[C@H](CC(C)C)NC(=O)[C@@H](C(C)C)NC(=O)[C@H](CCN)NC(=O)[C@H](CC(C)C)NC(=O)[C@@H](Cc2ccccc2)NC1=O)[C@@H](C)CC` yielded an MIC (Bacillus subtilis) of 4 µg/mL (≈ 3.69 µM), an MIC (Escherichia coli) of 16 µg/mL (≈ 14.7 µM) and an HC10 (Erythrocyte) of 512 µg/mL. For the same molecule, the MIC (Enterococcus faecalis) was 64 µg/mL (≈ 59 µM), the MIC (Klebsiella pneumoniae) was 64 µg/mL (≈ 59 µM) and the hemolysis at 1 h, 256 µg/mL [1] was < 5%. For the same molecule, the MIC (Staphylococcus aureus) was 32 µg/mL (≈ 29.5 µM) and the MIC (Pseudomonas aeruginosa) was 64 µg/mL (≈ 59 µM).

For `CCCCCCCCCCC(=O)N[C@@H](CCN)C(=O)N[C@H](C(=O)N[C@@H](CCN)C(=O)N[C@H](Cc1ccccc1)C(=O)N[C@@H](CC(C)C)C(=O)N[C@@H](CCN)C(=O)N[C@@H](C(=O)N[C@@H](CC(C)C)C(=O)N[C@H](C(N)=O)[C@@H](C)O)C(C)C)[C@@H](C)CC`, the MIC (Bacillus subtilis) was 2 µg/mL (≈ 1.71 µM), the MIC (Escherichia coli) was 4 µg/mL (≈ 3.41 µM) and the HC10 (Erythrocyte) was 16 µg/mL. It also gave an MIC (Enterococcus faecalis) of 8 µg/mL (≈ 6.82 µM), an MIC (Klebsiella pneumoniae) of 2 µg/mL (≈ 1.71 µM) and an MIC (Staphylococcus aureus) of 2 µg/mL (≈ 1.71 µM). It also gave an MIC (Pseudomonas aeruginosa) of 2 µg/mL (≈ 1.71 µM).

For `CCCCCCCCCCCCC(=O)N[C@@H](CCN)C(=O)N[C@H](C(=O)N[C@@H](CCN)C(=O)N[C@H](Cc1ccccc1)C(=O)N[C@@H](CC(C)C)C(=O)N[C@@H](CCN)C(=O)N[C@@H](C(=O)N[C@@H](CC(C)C)C(=O)N[C@H](C(N)=O)[C@@H](C)O)C(C)C)[C@@H](C)CC`, the MIC (Bacillus subtilis) was 16 µg/mL (≈ 13.3 µM), the MIC (Escherichia coli) was 8 µg/mL (≈ 6.66 µM) and the HC10 (Erythrocyte) was 8 µg/mL. The MIC (Enterococcus faecalis) was 8 µg/mL (≈ 6.66 µM), the MIC (Klebsiella pneumoniae) was 16 µg/mL (≈ 13.3 µM) and the MIC (Staphylococcus aureus) was 32 µg/mL (≈ 26.7 µM). It also gave an MIC (Pseudomonas aeruginosa) of 16 µg/mL (≈ 13.3 µM).

For `CCCCCCCCCC(=O)N[C@@H](CCN)C(=O)N[C@H](C(=O)N[C@@H](CCN)C(=O)N[C@H](Cc1ccccc1)C(=O)N[C@@H](CC(C)C)C(=O)N[C@@H](CCN)C(=O)N[C@@H](C(=O)N[C@@H](CC(C)C)C(=O)N[C@H](C(N)=O)[C@@H](C)O)C(C)C)[C@@H](C)CC`, the MIC (Bacillus subtilis) was 4 µg/mL (≈ 3.45 µM), the MIC (Escherichia coli) was 4 µg/mL (≈ 3.45 µM) and the HC10 (Erythrocyte) was 32 µg/mL. The MIC (Enterococcus faecalis) was 8 µg/mL (≈ 6.91 µM), the MIC (Klebsiella pneumoniae) was 4 µg/mL (≈ 3.45 µM) and the MIC (Staphylococcus aureus) was 4 µg/mL (≈ 3.45 µM). The MIC (Pseudomonas aeruginosa) was 4 µg/mL (≈ 3.45 µM).

In the case of `CN[C@H](CC(C)C)C(=O)N[C@H]1C(=O)N[C@@H](CC(N)=O)C(=O)N[C@H]2C(=O)N[C@H]3C(=O)N[C@H](C(=O)N[C@H](C(=O)O)c4cc(O)cc(O)c4-c4cc3ccc4O)[C@H](O)c3ccc(c(Cl)c3)Oc3cc2cc(c3O[C@@H]2O[C@H](CO)[C@@H](O)[C@H](O)[C@H]2O[C@H]2C[C@](C)(N)[C@H](O)[C@H](C)O2)Oc2ccc(cc2Cl)[C@H]1O` [VANCOMYCIN], the MIC (Bacillus subtilis) is reported as < 1 µg/mL, the MIC (Escherichia coli) is reported as 128 µg/mL (≈ 88.3 µM) and the MIC (Klebsiella pneumoniae) is reported as > 128 µg/mL. The MIC (Pseudomonas aeruginosa) was > 128 µg/mL.

Molecule `CCCCCCC(=O)N[C@@H](CCN)C(=O)N[C@H](C(=O)N[C@@H](CCN)C(=O)N[C@H](Cc1ccccc1)C(=O)N[C@@H](CC(C)C)C(=O)N[C@@H](CCN)C(=O)N[C@@H](C(=O)N[C@@H](CC(C)C)C(=O)N[C@H](C(N)=O)[C@@H](C)O)C(C)C)[C@@H](C)CC` has an MIC (Bacillus subtilis) of 4 µg/mL (≈ 3.58 µM), an MIC (Escherichia coli) of 4 µg/mL (≈ 3.58 µM) and an HC10 (Erythrocyte) of 256 µg/mL. For the same molecule, the MIC (Enterococcus faecalis) was 64 µg/mL (≈ 57.3 µM), the MIC (Klebsiella pneumoniae) was 8 µg/mL (≈ 7.17 µM) and the MIC (Staphylococcus aureus) was 16 µg/mL (≈ 14.3 µM). The MIC (Pseudomonas aeruginosa) was 16 µg/mL (≈ 14.3 µM).

`CCCCCCCCCCCC(=O)N[C@@H](CCN)C(=O)N[C@H](C(=O)N[C@@H](CCN)C(=O)N[C@H](Cc1ccccc1)C(=O)N[C@@H](CC(C)C)C(=O)N[C@@H](CCN)C(=O)N[C@@H](C(=O)N[C@@H](CC(C)C)C(=O)N[C@H](C(N)=O)[C@@H](C)O)C(C)C)[C@@H](C)CC` gave an MIC (Bacillus subtilis) of 8 µg/mL (≈ 6.74 µM), an MIC (Escherichia coli) of 4 µg/mL (≈ 3.37 µM) and an HC10 (Erythrocyte) of 8 µg/mL. The MIC (Enterococcus faecalis) was 4 µg/mL (≈ 3.37 µM), the MIC (Klebsiella pneumoniae) was 8 µg/mL (≈ 6.74 µM) and the MIC (Staphylococcus aureus) was 16 µg/mL (≈ 13.5 µM). The MIC (Pseudomonas aeruginosa) was 8 µg/mL (≈ 6.74 µM).

In the case of `NC[C@H]1O[C@H](O[C@H]2[C@H](O)[C@@H](O[C@H]3O[C@H](CO)[C@@H](O)[C@H](N)[C@H]3O)[C@H](N)C[C@@H]2N)[C@H](O)[C@@H](O)[C@@H]1O` [KANAMYCIN], the MIC (Bacillus subtilis) is reported as < 1 µg/mL, the MIC (Escherichia coli) is reported as 4 µg/mL (≈ 8.26 µM) and the MIC (Enterococcus faecalis) is reported as 16 µg/mL (≈ 33 µM). For the same molecule, the MIC (Klebsiella pneumoniae) was 32 µg/mL (≈ 66 µM), the MIC (Staphylococcus aureus) was < 1 µg/mL and the MIC (Pseudomonas aeruginosa) was > 128 µg/mL.

In the case of `CC[C@H](C)[C@H](NC(=O)[C@@H](N)CCN)C(=O)N[C@@H](CCN)C(=O)N[C@H](Cc1ccccc1)C(=O)N[C@@H](CC(C)C)C(=O)N[C@@H](CCN)C(=O)N[C@@H](C(=O)N[C@@H](CC(C)C)C(=O)N[C@H](C(N)=O)[C@@H](C)O)C(C)C`, the MIC (Bacillus subtilis) is reported as 32 µg/mL (≈ 31.9 µM), the MIC (Escherichia coli) is reported as 128 µg/mL (≈ 127 µM) and the HC10 (Erythrocyte) is reported as 512 µg/mL. For the same molecule, the MIC (Enterococcus faecalis) was > 128 µg/mL, the MIC (Klebsiella pneumoniae) was > 128 µg/mL and the MIC (Staphylococcus aureus) was > 128 µg/mL. It also gave an MIC (Pseudomonas aeruginosa) of 32 µg/mL (≈ 31.9 µM).
